Laboratory results: US20080269279A1, “Substituted furo[2,3-B] pyridine derivatives as cannabinoid-1 receptor modulators” (priority 2007, published 2008)
Where two headings read alike, the source gives them in different places.

How the values were obtained:
[1] = tested on: human GABA α1β3β2 receptors; assay: GABAa, 3H-muscimol binding assay; details: activity at 10 μM as percentage of activity of control compound P18 at 10 μM (increase of 3H-muscimol binding)
Protocol: Membranes from recombinant Ltk cells expressing human GABA α1β3β2 receptors were suspended in an ice-cold solution of 100 mM KCl, 10 mM KH2PO4, adjusted to pH=7.4 with 1 M KOH. Tritiated muscimol (PerkinElmer, Wellesley, Mass.) at a concentration of 2 nM, and serial five-fold dilutions of test compounds at 10 μM, 2.0 μM, 400 nM, 80 nM, 16 nM, 3.2 nM, 0.64 nM and 0.13 nM were mixed in 96-well plates containing 200 μL of membrane suspension. Cold muscimol and compound P18 were used as negative and positive controls respectively. The assay mixture was incubated at 4° C. for 2 hours, then harvested on GF/C filter plates and washed with ice-cold 50 mM Tris-Ci buffer. The filter plates were dried and counted in a Wallac MicroBeta® Trilux detector (Model 1450-030; PerkinElmer, Wellesley, Mass.), and the data were downloaded and analyzed using Prism 3.0. The activity of compound P18 at 10 μM was used as reference for the test compounds, and it was expressed as increasing ^3H-muscimol binding by 100%, whereas cold muscimol at 2 μM antagonized ^3H-muscimol binding by 100%. The tested compound's activity at 10 μM was expressed as a percentage of compound P18's activity at 10 μM.
As a reference, the parent compound (the compound not substituted with a R^4 heteroaryl, such as pyrazole or 1,2,4-oxadiazole, as indicated below) is also shown with its Gamma Amino Butyric Acid (GABA) Receptor activity. […] As a result, the compounds of the present invention in which R^4 is a heteroaryl, such as pyrazole or 1,2,4-oxadiazole, have the unexpected benefits of minimizing off target activity at the GABA receptor.
Note: % GABA is defined as the GABA activity of the indicated compound expressed as a percentage of the activity of control compound P18. NA=data not available.

[2] = target: T1, recombinant human CB1 receptor (Homo sapiens, UniProt P21554); assay: Cannabinoid Receptor-1 (CB1) Binding Assay ([3H]CP-55940 displacement)
T1 construct: expressed in transfected cells
Protocol: Binding affinity determination is based on recombinant human CB1 receptor expressed in Chinese Hamster Ovary (CHO) cells (Felder et al, Mol. Pharmacol. 48: 443-450, 1995). Total assay volume is 250 μl (240 μl CB1 receptor membrane solution plus 5 μl test compound solution plus 5 μl [3H]CP-55940 solution). Final concentration of [3H]CP-55940 is 0.6 nM. Binding buffer contains 50 mM Tris-HCl, pH 7.4, 2.5 mM EDTA, 5 mM MgCl2, 0.5 mg/mL fatty acid free bovine serum albumin and protease inhibitors (Cat#P8340, from Sigma). To initiate the binding reaction, 5 μl of radioligand solution is added, the mixture is incubated with gentle shaking on a shaker for 1.5 h at 30° C. The binding is terminated by using 96-well harvester and filtering through GF/C filter presoaked in 0.05% polyethylenimine. The bound radiolabel is quantitated using scintillation counter. Apparent binding affinities for various compounds are calculated from IC50 values (DeBlasi et al., Trends Pharmacol Sci 10: 227-229, 1989).

[3] = target: T1, recombinant human CB1 receptor; assay: Cannabinoid Receptor-1 (CB1) Functional Activity Assay (intracellular cAMP in CB1-CHO cells); assay type: cell-based; details: for functional mode at CB1 receptor: CB1 functional activity assay, cAMP
Protocol: The functional activation of CB1 receptor is based on recombinant human CB1 receptor expressed in CHO cells (Felder et al, Mol. Pharmacol. 48: 443-450, 1995). To determine the agonist activity or inverse agonist activity of any test compound, 50 ul of CB1-CHO cell suspension are mixed with test compound and 70 ul assay buffer containing 0.34 mM 3-isobutyl-1-methylxanthine and 5.1 uM of forskolin in 96-well plates. The assay buffer is comprised of Earle's Balanced Salt Solution supplemented with 5 mM MgCl2 1 mM glutamine, 10 mM HEPES, and 1 mg/mL bovine serum albumin. The mixture is incubated at room temperature for 30 minutes, and terminated by adding 30 ul/well of 0.5M HCl. The total intracellular cAMP level is quantitated using the New England Nuclear Flashplate and cAMP radioimmunoassay kit.
To determine the antagonist activity of test compound, the reaction mixture also contains 0.5 nM of the agonist CP55940 (or 50 nM of methanandamide), and the reversal of the CP55940 (or methanandamide) effect is quantitated with increasing concentration of the test compound. Intracellular cAMP is determined as described above. An IC50 value for the test compound is calculated from the titration curve.

[4] = recombinant human CB1 receptor expressed in CHO cells, 0.6 nM [3H]CP-55940, read-out: CB1 binding IC50
[5] = CB1-CHO cells, forskolin-stimulated cAMP, read-out: EC50 in the CB1 functional activity assay

T1 sequence (P21554 whole entry): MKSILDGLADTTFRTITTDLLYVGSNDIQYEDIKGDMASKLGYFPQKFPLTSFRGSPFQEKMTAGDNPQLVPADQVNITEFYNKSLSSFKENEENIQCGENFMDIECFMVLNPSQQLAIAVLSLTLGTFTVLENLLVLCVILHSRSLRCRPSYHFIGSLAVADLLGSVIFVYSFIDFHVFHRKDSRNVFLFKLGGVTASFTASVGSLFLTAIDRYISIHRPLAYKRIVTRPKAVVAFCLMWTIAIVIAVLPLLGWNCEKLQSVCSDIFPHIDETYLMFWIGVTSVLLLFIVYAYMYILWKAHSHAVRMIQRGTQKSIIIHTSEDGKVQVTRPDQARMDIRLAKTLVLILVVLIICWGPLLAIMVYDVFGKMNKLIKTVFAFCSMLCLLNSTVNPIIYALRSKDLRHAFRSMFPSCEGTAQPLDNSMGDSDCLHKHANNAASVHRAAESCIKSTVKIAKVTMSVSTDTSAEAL

Row | Structure (SMILES) | % GABA Example [1] | IC50 [2, 4] | EC50 [3, 5] | functional mode at CB1 receptor [3] | IC50 [2] | EC50 [3]
1 | CC(=O)Nc1c(C(=O)C(C)(C)O)oc2nc(-c3ccc(-c4cn[nH]c4)cc3Cl)c(-c3ccc(Cl)cc3)cc12 [Example 1, N-[5-(4-Chlorophenyl)-6-[2-chloro-4-(1H-pyrazol-4-yl)phenyl]-2-(2-hydroxy-2-methylpropanoyl)furo[2,3-b]pyridin-3-yl]acetamide] | 38% | 2 nM | < 20 nM | functional inverse agonists |  | 
2 | CC(=O)Nc1c(C(=O)C(C)C)oc2nc(-c3ccc(-c4cc[nH]n4)cc3Cl)c(-c3ccc(Cl)cc3)cc12 [Example 2, N-{5-(4-Chlorophenyl)-6-[2-chloro-4-(1H-pyrazol-3-yl)phenyl]-2-isobutyrylfuro[2,3-b]pyridin-3-yl}acetamide] | 17% | 6 nM | < 20 nM | functional inverse agonists |  | 
3 | Cc1n[nH]cc1-c1ccc(-c2nc3oc(C(=O)C(C)(C)C)c(C(N)=O)c3cc2-c2ccc(Cl)cc2)c(Cl)c1 [Example 3, 6-[2-chloro-4-(3-methyl-1H-pyrazol-4-yl)phenyl]-5-(4-chlorophenyl)-2-(2,2-dimethylpropanoyl)furo[2,3-b]pyridine-3-carboxamide] | 9% | 1 nM | < 20 nM | functional inverse agonists |  | 
4 | CC(C)(C)C(=O)c1oc2nc(-c3ccc(-c4cn[nH]c4)cc3Cl)c(-c3ccc(Cl)cc3)cc2c1N [Example 7, 1-{3-Amino-5-(4-chlorophenyl)-6-[2-chloro-4-(1H-pyrazol-4-yl)phenyl]furo[2,3-b]pyridin-2-yl}-2,2-dimethylpropan-1-one] | 17% | 1 nM | < 20 nM | functional inverse agonists |  | 
5 | Cc1c(S(=O)(=O)C(C)(C)C)oc2nc(-c3ccc(-c4cn[nH]c4)cc3Cl)c(-c3ccc(Cl)cc3)cc12 [Example 11, 2-(Tert-butylsulfonyl)-5-(4-chlorophenyl)-6-[2-chloro-4-(1H-pyrazol-4-yl)phenyl]-3-methylfuro[2,3-b]pyridine] | 7% | 1 nM | < 20 nM | functional inverse agonists |  | 
6 | Cc1n[nH]cc1-c1ccc(-c2nc3oc(C(=O)C(C)(C)C)c(CO)c3cc2-c2ccc(Cl)cc2)c(Cl)c1 [Example 37, 1-[6-[2-Chloro-4-(3-methyl-1H-pyrazol-4-yl)phenyl]-5-(4-chlorophenyl)-3-(hydroxymethyl)furo[2,3-b]pyridin-2-yl]-2,2-dimethylpropan-1-one] | 14% | 1 nM | < 20 nM | functional inverse agonists |  | 
7 | CC(=O)c1c(C(=O)C(C)C)oc2nc(-c3ccc(-c4c[nH]nc4C)cc3Cl)c(-c3ccc(Cl)cc3)cc12 [Example 38, 1-[3-Acetyl-6-[2-chloro-4-(3-methyl-1H-pyrazol-4-yl)phenyl]-5-(4-chlorophenyl)furo[2,3-b]pyridin-2-yl]-2-methylpropan-1-one] | 39% | 3 nM | < 20 nM | functional inverse agonists |  | 
8 | CC(=O)c1c(C(=O)C(C)(C)C)oc2nc(-c3ccc(-c4c[nH]nc4C)cc3Cl)c(-c3ccc(Cl)cc3)cc12 [Example 40, 1-[3-Acetyl-6-[2-chloro-4-(3-methyl-1H-pyrazol-4-yl)phenyl]-5-(4-chlorophenyl)furo[2,3-b]pyridin-2-yl]-2,2-dimethylpropan-1-one] | 12% |  |  | functional inverse agonists | 1 nM | < 20 nM
9 | CC(=O)Nc1c(C(=O)C(C)(C)O)oc2nc(-c3ccc(-c4c[nH]nc4C)cc3Cl)c(-c3ccc(Cl)cc3)cc12 [Example 41, N-[6-[2-Chloro-4-(3-methyl-1H-pyrazol-4-yl)phenyl]-5-(4-chlorophenyl)-2-(2-hydroxy-2-methylpropanoyl)furo[2,3-b]pyridin-3-yl]acetamide] | 35% | 5 nM | < 20 nM | functional inverse agonists |  | 
10 | CC(C)(C)C(=O)c1oc2nc(-c3ccc(-c4ncon4)cc3Cl)c(-c3ccc(Cl)cc3)cc2c1NC(=O)CO [Example 43, N-[6-[2-Chloro-4-(1,2,4-oxadiazol-3-yl)phenyl]-5-(4-chlorophenyl)-2-(2,2-dimethylpropanoyl)furo[2,3-b]pyridin-3-yl]-2-hydroxyacetamide] | 41% | 0.4 nM | < 20 nM | functional inverse agonists |  | 
